What was measured:
[1] = Tetrabenazine Antagonism (Anti-TBZ); assay type: in vivo, mouse (Carworth CF1 S female mice); details: for ED50: po, 1 h, mouse, p.o., tetrabenazine 32 mg/kg i.p. 30 min after compound
Protocol: Groups of 10 Carworth CF1 S female mice, 18-21 g each, were fasted 1.5 hours and were incubated with antagonist compounds at oral doses of 0, 5, 25, and 125 mg/kg or 0, 1, 3, 9, 27, and 81 mg/kg in 0.20 ml of 1% Methocel. The mice were challenged 30 minutes later with tetrabenazine (as the methanesulfonate), 32 mg/kg intraperitoneally (dissolved in 0.20 ml 0.05M KCl at pH 2.0). One hour after antagonist (30 minutes after tetrabenzaine), the mice were examined for signs of exploratory activity and ptosis (eyelid closure). Normal exploratory activity (relief from sedation) was recorded when a mouse lifted by the tail from a group of 10 in a testing box and placed on a stainless steel testing box lid (12.5 × 8 inches with 0.33 inch mesh) either turned its head horizontally 30° in both directions or moved to the edge of the screen within 10 seconds after being placed on the screen. Relief from ptosis was recorded when exactly two seconds after placing the mouse facing the observer, lid closure was less than 50% in both eyes.
The ED50 's for the compound of the present invention and for the molindone racemic mixture are given in the following table, along with certain appropriate ratios: […]

[2] = Exploratory Loss; assay type: in vivo, mouse; details: for ED50: po, mouse, p.o., loss of exploratory activity, column 3, read-out: ED50 mouse EXPL. LOSS
From the text: The mouse is placed on a stainless steel wire mesh screen (8 × 12 inches, 3 mesh per inch, 1/4inch mesh openings) "shoe-box" lid (1inch high) and is observed for normal activities, such as nose movements, head movements with apparent visual examination of the area, and/or walking around on the screen. Normal mice respond within 2 to 3 seconds. Absence of or a marked depression of these activities for 5 seconds constitutes a loss of exploratory activity. The ED50 's for the compound of the present invention and for the molindone racemic mixture are given in the following table, along with certain appropriate ratios: […]

[3] = Rat Conditioned Avoidance Response (rat CAR); assay type: in vivo; details: for ED50: po, rat, p.o., block of conditioned avoidance response in 50% of rats, tested 1, 2 and 4 hours after dosing, column 4
Protocol: Blocking of CAR in rats at nontoxic doses correlates with major tranquilizer activity in man. Rats are trained to jump out of a pit onto a ledge to avoid shock when presented with a conditioned stimulus of light and sound. Three or four doses of durg are given to a group of 4-8 rats. The animals are tested 1, 2 and 4 hours after dosing. A quantal ED50 is calculated as the dose which would block the CAR in 50% of the rats. The results are given in mg/kg., p.o. (Table 1) The ED50 's for the compound of the present invention and for the molindone racemic mixture are given in the following table, along with certain appropriate ratios: […]

[4] = relief from ptosis, column 1, read-out: ED50 mouse ANTI-TBZ ptosis
[5] = relief from sedation (exploratory activity), column 2, read-out: ED50 mouse ANTI-TBZ expl. loss

SMILES	ED50 [1, 4]	ED50 [1, 5]	ED50 [2]	ED50 [3]	antidepressant activity compared with the racemate ([1]; in words)	separation of the antidepressant activity from the sedative activity ([2]; as compared with the racemate, from the ratios in the table, in words)	sedative activity compared with the racemate ([2]; in words)	tranquilizer activity compared with the racemate ([3]; in words)
CCc1c(C)[nH]c2c1C(=O)C(CN1CCOCC1)CC2 (racemic) [(±)-molindone, 3-ethyl-6,7-dihydro-2-methyl-5(morpholinomethyl)indol-4(5H)-one, reference compound]	7.2 mg/kg	9 mg/kg	38 mg/kg	28 mg/kg	–	–	–	–
CCc1c(C)[nH]c2c1C(=O)C(CN1CCOCC1)CC2 (single isomer, unassigned; (-)) [(-)-molindone]	2.7 mg/kg	3.4 mg/kg	25 mg/kg	21 mg/kg	significantly greater antidepressant activity	clear separation of the antidepressant activity from the sedative activity	approximately the same sedative and tranquilizer activity as the racemate	approximately the same sedative and tranquilizer activity as the racemate
